Patent publication US20260034150A1, “CANNABIDIOL FOR USE IN TREATING OR PREVENTING RECURRENT PERICARDITIS” (CARDIOL THERAPEUTICS INC., priority 2022, published 2026)
“And” between values parts separate entries of the source, which are not always exact repeats. Equal values may be shown once.

Assays:
IL-6 = IL-6 ELISA in LPS-treated macrophages (in vitro model of inflammation); type: cell-based, mouse; conditions: CBD 10 μM + LPS 1 μg/mL for 6 hours; J774A.1
Method: Experiments were performed to evaluate cannabidiol's anti-inflammatory activity and mechanism of action. The secretion of IL-6 and the transcription of the NLRP3 inflammasome components, pro-IL-1β mRNA, and NLRP3 mRNA, are regulated by the NF-κβ pathway and activated by LPS. In a first experiment, J774A.1 mouse macrophages were cultured in 96-well plates (15,000 cells/well) and divided into the following groups to which various treatments described below were administered during a period of six hours: • 1. Group 1 (Control)—cells received nothing during the 6 hours treatment period. • 2. Group 2 (LPS)—cells received LPS (1 μg/ml) for 6 hours. • 3. […] After 6 hours, 100 μL of a sample from each well of cells was collected and loaded as a single point in a specific ELISA assay that was used to measure the amount of IL-6 in each sample. […] A second experiment was performed to evaluate the effect of cannabidiol on the transcription of components of the NLRP3 inflammasome, namely, pro-IL-1β mRNA and NLRP3 mRNA. In this second experiment, J774A.1 mouse macrophages were cultured in individual plates (1,000,000 cells/well) and divided into the following groups to which various treatments described below were administered during a period of six hours. • 1. Group 1 (Control)—cells received nothing during the 6 hours treatment period. • 2. […]

[1] = test system: mouse model of pericarditis; test: Mouse model of pericarditis (Zymosan A): pericardial space by transthoracic echocardiography; type: in vivo
Method: (§1) Experiments were conducted using a mouse model of pericarditis described in Mauro et al. (10), which mouse model is incorporated herein by reference for its disclosure of the mouse model.
(§2) Adult Institute of Cancer Research (IRC) mice (10 weeks of age) supplied by Harlan Laboratories (Harlan Sprague Dawley Inc.) were used and divided into the following treatment groups, with each group consisting of 4-5 mice: • 1. Group 1 (NaCl+Veh)—mice received normal saline (0.9% w/v NaCl) in the surgical procedure described below and were subsequently treated for seven days with a vehicle consisting of ethanol:Cremophor EL:water (1:1:18). • 2. Group 2 (NaCl+)—mice received normal saline (0.9% w/v NaCl) in the surgical procedure described below and were subsequently treated for seven days with cannabidiol at a dose of 10 mg/kg. The cannabidiol was dissolved in the same vehicle as the vehicle used for Group 1. • 3. Group 3 (Zym+Veh)—mice received Zymosan A in the surgical procedure described below and were subsequently treated for seven days with the same vehicle as the vehicle used for Group 1. • 4. […] The cannabidiol was dissolved in the same vehicle as the vehicle used for Group 1. • 5. […] The cannabidiol was dissolved in the same vehicle as the vehicle used for Group 1.
The mice of all four treatment groups were anesthetized, intubated orotracheally, and placed in the right lateral decubitus position. A left thoracotomy was then performed. Under direct visualization and using a 30 Gauge needle, 1 mg of Zymosan A (referred to herein also as “zymosan”) dissolved in 50 μl of sterile normal saline (0.9% w/v NaCl) was delivered into the pericardial space of the mice of Groups 3 and 4 by carefully lifting the pericardial sac with forceps until a complete distribution of the solution into the pericardium was achieved. […] All mice received analgesia for the peri-operative period.
For all groups, treatments with either cannabidiol dissolved in vehicle, or vehicle alone, were administered intraperitoneally (IP) every day for seven days with the first treatment administered approximately 30 minutes after the surgery.
On day seven, echocardiography was performed on the mice of all groups under light anesthesia using a Prospect™ T1 ultrasound imaging system (Scintica, London, Canada). In this procedure, the left ventricle in the parasternal short-axis view at the mid-ventricular level was visualized in the bi-dimensional mode (B-mode). The image was optimized for the anterior wall, and the image was zoomed in to visualize the anterior pericardial structures. After optimization of the image, amono-dimensional mode (M-mode) was acquired for optimal spatial-temporal resolution. An investigator blinded to group allocation measured the maximal pericardial space between the 2 layers of the pericardium in both M- and B-mode. The pericardial space is a one-dimensional measure of pericardial effusion.

NLRP3 mRNA = test: PCR of NLRP3 mRNA transcription in LPS-treated macrophages; type: cell-based, mouse; conditions: CBD 10 μM + LPS 1 μg/mL for 6 hours; J774A.1
Method: (§3) Experiments were performed to evaluate cannabidiol's anti-inflammatory activity and mechanism of action. The secretion of IL-6 and the transcription of the NLRP3 inflammasome components, pro-IL-1β mRNA, and NLRP3 mRNA, are regulated by the NF-κβ pathway and activated by LPS. After 6 hours, 100 μL of a sample from each well of cells was collected and loaded as a single point in a specific ELISA assay that was used to measure the amount of IL-6 in each sample. […] A second experiment was performed to evaluate the effect of cannabidiol on the transcription of components of the NLRP3 inflammasome, namely, pro-IL-1β mRNA and NLRP3 mRNA. In this second experiment, J774A.1 mouse macrophages were cultured in individual plates (1,000,000 cells/well) and divided into the following groups to which various treatments described below were administered during a period of six hours. • 1. Group 1 (Control)—cells received nothing during the 6 hours treatment period. • 2. Group 2 (LPS)—cells received LPS (1 μg/ml) for 6 hours. • 3. […] At the end of the six-hour treatment period, samples from each group were collected and processed using Polymerase Chain Reaction (PCR) to measure the level of transcription of pro-IL-1B mRNA and NLRP3 mRNA in the samples.

[2] = test system: mouse model of pericarditis; test: Mouse model of pericarditis (Zymosan A): pericardial thickness by histochemistry; type: in vivo; conditions: day seven, differences not statistically significant
Method: as §1, §2
The mice of all four treatment groups were anesthetized, intubated orotracheally, and placed in the right lateral decubitus position. A left thoracotomy was then performed. […]
Following echocardiography, and on day seven, the mice were sacrificed, and their hearts were explanted and processed for pathology. […] An investigator blinded to group allocation measured the pericardial thickness with the aid of computer morphometry using Image-Pro™ Plus 6.0 software (Media Cybernetics, Silver Spring, MD).

NLRP3 inflammasome = test: IL-1β ELISA in the in vitro model of NLRP3 inflammasome activation (LPS + ATP); type: cell-based, mouse; conditions: for attenuation of the increase in IL-1β: CBD 10 μM, LPS + ATP
Method: An experiment was performed to determine the effect of 10 μM cannabidiol on NLRP3 inflammasome activation in an in vitro model as follows. J774A.1 mouse macrophages were cultured in 96-well plates (15,000 cells/well) and divided into the following groups to which various treatments described below were administered during a period of six hours: • 1. Group 1 (CNT)—cells received nothing during the 6-hour treatment period. • 2. Group 2 (LPS)—cells received LPS (1 μg/ml) for 6 hours. • 3. Group 3 (ATP)—cells received nothing for 5.5 hours and then ATP (5 mM) for the last 30 minutes. • 4. Group 4 (LPS+ATP)—cells received LPS (1 μg/mL) for 5.5 hours and ATP (5 mM) for the last 30 minutes. • 5. […] After 6 hours, 100 μL of a sample from each well of cells was collected and loaded as a single point in a specific ELISA assay that was used to measure the amount of IL-1β secreted by the macrophages in each sample. IL-1β is an indicator of and positively correlated with NLRP3 inflammasome activation. An experiment was performed to evaluate the effect of different doses of cannabidiol (10, 1, 0.1, and 0.01 μM) using the in vitro model of Example 1A. In this experiment, J774A.1 mouse macrophages were cultured in 96-well plates (15,000 cells/well) and divided into the following groups to which various treatments described below were administered during a period of six hours: • 1. Group 1 (Control)—cells received nothing during the 6-hour treatment period. • 2. Group 2 (LPS+ATP)—cells received LPS (1 μg/mL) for 5.5 hours and ATP (5 mM) for the last 30 minutes. • 3. […] After 6 hours, 100 μL of a sample from each well of cells was collected and loaded as a single point in a specific ELISA assay that was used to measure the amount of IL-1β in each sample.

pro-IL-1β mRNA = test: PCR of pro-IL-1β mRNA transcription in LPS-treated macrophages; type: cell-based, mouse; conditions: CBD 10 μM + LPS 1 μg/mL for 6 hours; J774A.1
Method: as §3

In the case of `C=C(C)[C@@H]1CCC(C)=C[C@H]1c1c(O)cc(CCCCC)cc1O` [CBD, 2-[(1R,6R)-3-methyl-6-prop-1-en-2-ylcyclohex-2-en-1-yl]-5-pentylbenzene-1,3-diol], the “effect on LPS-induced increase in IL-6 (FIG. 1C)” value (IL-6) is reported as “attenuated this increase completely”, the “effect on increase in measured pericardial space, Zym+CBD 1 mg/kg (FIG. 2)” value ([1]; Zymosan A mice, CBD 1 mg/kg IP daily for seven days) is reported as “attenuated the increase in the measured pericardial space to the same degree as cannabidiol at a dose of 10 mg/kg” and the “Measured pericardial space, Zym + CBD, Mean” value ([1]; Zymosan A mice, CBD 10 mg/kg IP daily for seven days, day seven, mean) is reported as 0.1177 mm. For the same compound, the “Measured pericardial space, Zym + CBD” value ([1]; Zymosan A mice, CBD 10 mg/kg IP daily for seven days, day seven, single mice) was 0.103 mm and 0.152 mm and 0.112 mm and 0.104 mm, the “pericardial space versus Group 1 (Saline+Veh), Zym+CBD” value ([1]; Zymosan A mice, CBD 10 mg/kg IP, differences not statistically significant) was “did not develop a pericardial space greater than that of the mice of Group 1” and the “attenuation of the increase in the measured pericardial space” value ([1]; calculated from Table 2 means, Zymosan A mice, CBD 10 mg/kg IP) was “at least 85%”. The “Measured pericardial space, Saline + CBD” value ([1]; sham (saline) mice, CBD 10 mg/kg IP daily for seven days, day seven, single mice) was 0.098 mm and 0.097 mm and 0.105 mm, the “pericardial space versus Group 1 (Saline+Veh), Saline+CBD” value ([1]; sham mice, CBD 10 mg/kg IP, differences not statistically significant) was “did not develop a pericardial space greater than that of the mice of Group 1” and the “effect on LPS-induced transcription of NLRP3 mRNA (FIG. 1E)” value (NLRP3 mRNA) was “significantly attenuated these increases”. For the same compound, the “pericardial thickness versus Group 1 (NaCl+Veh), Zym+CBD 1 mg/kg” value ([2]; Zymosan A mice, CBD 1 mg/kg IP) was “did not develop a pericardial thickness different from that of the mice of Group 1”, the “pericardial thickness versus Group 1 (NaCl+Veh), Zym+CBD 10 mg/kg (FIG. 3)” value ([2]; Zymosan A mice, CBD 10 mg/kg IP) was “did not develop a pericardial thickness different from that of the mice of Group 1” and the “pericardial thickness versus Group 1 (NaCl+Veh), NaCl+CBD (FIG. 3)” value ([2]; sham mice, CBD 10 mg/kg IP) was “did not develop a pericardial thickness different from that of the mice of Group 1”. For the same compound, the “IL-1β concentration versus LPS+ATP group (FIG. 1A)” value (NLRP3 inflammasome; CBD 10 μM + LPS + ATP versus LPS + ATP, J774A.1) was “significantly lower concentrations of IL-1β”, the “effect of different concentrations on IL-1β (FIG. 1B)” value (NLRP3 inflammasome; CBD 10, 1, 0.1 and 0.01 μM + LPS + ATP, J774A.1) was “effective to attenuate the increase in IL-1β in a dose dependent fashion” and the “IL-1β with CBD alone versus Control group” value (NLRP3 inflammasome; CBD alone 10 μM, no LPS or ATP, J774A.1) was “no different than the Control group”. For the same compound, the “IL-1β Concentration, CBD, Mean” value (NLRP3 inflammasome; Table 1A.1, J774A.1 macrophages, CBD 10 μM alone for 6 hours, mean) was 6 pg/mL, the “IL-1β Concentration, CBD” value (NLRP3 inflammasome; Table 1A.1, J774A.1 macrophages, CBD 10 μM alone for 6 hours, single wells) was 5.9 pg/mL and 6.1 pg/mL and the “IL-1β Concentration, CBD + LPS + ATP, Mean” value (NLRP3 inflammasome; Table 1A.1, J774A.1, CBD 10 μM + LPS 1 μg/mL 5.5 hours, ATP 5 mM last 30 minutes, mean) was 118.725 pg/mL. The “IL-1β Concentration, CBD” value (NLRP3 inflammasome; Table 1A.2 (repeat), J774A.1, CBD 10 μM alone, single wells) was 7.86 pg/mL and 6.35 pg/mL and 8.81 pg/mL and 9.46 pg/mL and 10.46 pg/mL and 8.97 pg/mL, the “IL-1β Concentration, LPS + ATP + CBD” value (NLRP3 inflammasome; Table 1A.3 (repeat), J774A.1, CBD 10 μM + LPS + ATP, single wells) was 10.8 pg/mL and 17 pg/mL and 11.31 pg/mL and 18.96 pg/mL and the “IL-1β Concentration, LPS + ATP + CBD, Mean” value (NLRP3 inflammasome; Table 1A.4, mean of Tables 1A.2 and 1A.3, CBD 10 μM + LPS + ATP) was 19.44 pg/mL. For the same compound, the “IL-1β Concentration, CBD, Mean” value (NLRP3 inflammasome; Table 1A.4, mean of Tables 1A.2 and 1A.3, CBD 10 μM alone) was 8.898 pg/mL, the “attenuation of the increase in IL-1β” value (NLRP3 inflammasome; calculated from Table 1A.1 means) was “over 70%” and the “attenuation of the increase in IL-1β” value (NLRP3 inflammasome; calculated from Table 1A.4 means) was “about 97.65%”. For the same compound, the “effect on LPS-induced transcription of pro-IL-1β mRNA (FIG. 1D)” value (pro-IL-1β mRNA) was “significantly attenuated these increases”.
